How the values were obtained:
Test in all cases: relative viability (nuclei count vs DMSO), 5 days (fraction); higher = more cells survive
Pictilisib = compound: CS(=O)(=O)N1CCN(Cc2cc3nc(-c4cccc5[nH]ncc45)nc(N4CCOCC4)c3s2)CC1 [Pictilisib]
Summary of the method: (§1)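 Only plates meeting two conditions passed: control CV below 25% and at least one doubling. Lung cancer cell lines, kept overnight at 37 °C in 1536-well plates, were pinned with five library-drug doses (not always all listed) √10 apart on vehicle-anchored plates and grown 5 days without medium change. A one-step fix, permeabilisation and Hoechst stain preceded 4× imaging and MetaXpress nuclear counting. Viability equals treated-well nuclei divided by vehicle-well nuclei, as the median over plates.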

MK-2206 = compound: NC1(c2ccc(-c3nc4ccn5c(=O)[nH]nc5c4cc3-c3ccccc3)cc2)CCC1 [MK-2206]
Summary of the method: as §1

Pictilisib + Foretinib = compound: CS(=O)(=O)N1CCN(Cc2cc3nc(-c4cccc5[nH]ncc45)nc(N4CCOCC4)c3s2)CC1 [Pictilisib] + COc1cc2c(Oc3ccc(NC(=O)C4(C(=O)Nc5ccc(F)cc5)CC4)cc3F)ccnc2cc1OCCCN1CCOCC1 [Foretinib] (partner 0.25 µM)
Summary of the method: (§2)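 Five library-drug doses in √10 steps were combined with a fixed anchor-drug dose, or a single drug was given alone, by pin tool to lung cancer cell lines in 1536-well plates the day after seeding. Nuclei were stained and counted after 5 days. Relative viability is the nuclei count in treated wells over that in vehicle wells, taken as the median of duplicate plates.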

Pictilisib + Bortezomib = compound: CS(=O)(=O)N1CCN(Cc2cc3nc(-c4cccc5[nH]ncc45)nc(N4CCOCC4)c3s2)CC1 [Pictilisib] + CC(C)C[C@H](NC(=O)[C@H](Cc1ccccc1)NC(=O)c1cnccn1)B(O)O [Bortezomib] (partner 0.002 µM)
Summary of the method: as §2

UMC-11
relative viability (Pictilisib; 0.02 µM): 0.989
relative viability (Pictilisib; 0.06325 µM): 1.14
relative viability (Pictilisib; 0.6325 µM): 1.07
relative viability (Pictilisib; 1 µM, anchor plate): 0.846
relative viability (Pictilisib; 2 µM): 0.937
relative viability (MK-2206; 0.01 µM): 0.94
relative viability (MK-2206; 0.03162 µM): 1.02
relative viability (MK-2206; 0.3162 µM): 1.07
relative viability (MK-2206; 1 µM): 0.937
relative viability (Pictilisib + Foretinib; first compound 0.02 µM): 0.983
relative viability (Pictilisib + Foretinib; first compound 0.06325 µM): 1.25
relative viability (Pictilisib + Foretinib; first compound 0.6325 µM): 1.13
relative viability (Pictilisib + Foretinib; first compound 2 µM): 0.979
relative viability (Pictilisib + Bortezomib; first compound 0.02 µM): 0.828
relative viability (Pictilisib + Bortezomib; first compound 0.06325 µM): 0.902
relative viability (Pictilisib + Bortezomib; first compound 0.6325 µM): 0.78
relative viability (Pictilisib + Bortezomib; first compound 2 µM): 0.768

From the supplement of paper PMC10307832
